Assay results: patent US20230313313A1, “BIOMARKERS FOR CANCER THERAPY USING MDM2 ANTAGONISTS” (OTSUKA PHARMACEUTICAL CO., LTD., priority 2020, published 2023)
Entries after “also recorded” stand apart in the source; their conditions may differ.

Columns and labels:
[1] = system: MV4-11 cells; test: Alamar Blue proliferation assay, MV4-11 overexpressing SKP2 vs control; type: cell-based, human; conditions: MV4-11 SKP2 OE compared to control
Method: Precision LentiORF Transduction:
Precision LentiORF Lentiviral Transduction Particles (Cat. OHS5900-224629438, Dharmacon, UK) were used to overexpress SKP2 in the MV4-11 AML cell line. Stable gene overexpression was established by cellular resistance to blasticidin (5 μg/ml) and was confirmed at the protein level by western blot. The Precision LentiORF control empty vector (Dharmacon, UK) served as a negative control.
The number of viable cells was determined by Alamar Blue assay (Bio-Rad, Irvine, CA, USA). All cell lines were grown and assayed in RPMI-1640+10% FBS medium.
Compounds were diluted first in DMSO and then into serum-free medium, before addition to triplicate wells of the cultured cells to give a 0.1% DMSO final concentration. […] Twenty μl of Alamar Blue™ (AbD Serotec/Bio-Rad) was added to each well and plates were then incubated for 4-6 h at 37° C. in an atmosphere of 5% CO2 and air. Plates were then read at 535 nm (excitation) and 590 nm (emission) on a SpectraMax Gemini reader (Molecular Devices, San Jose, CA, USA).

[2] = system: OCI-AML3 cells; test: Induction of apoptosis by cleaved caspase-3 cytometry, combination with IAP antagonist; type: cell-based, human; conditions: 0.1 μM Compound 1 with 1 μM ASTX660 and 1 ng/ml TNF-alpha, 72 h
Method: Cleaved caspase-3 staining was recorded in the FL1 (green) channel, with unstained and DMSO control wells being used to set the gated stained and unstained cell populations—allowing the percentage of cells that are apoptotic to be calculated.

[3] = system: SN40R2; test: Protocol A: SN40R2 growth inhibition, sulphorhodamine B (SRB) method; conditions: 72 h, read-out: SN40R2 IC50 (Protocol A)
Method: Following incubation with the SRB dye at room temperature for 30 min, the plates were washed with 1% acetic acid and left to dry. […] The GI50 was calculated by non-linear regression analysis of the data using Prism v4.0 statistical software.

[4] = system: multiple myeloma (MM) cells; conditions: in vitro and ex vivo; cited from earlier work
[5] = system: human leukaemia models; conditions: by inducing MDM2 degradation; cited from earlier work
[6] = system: cancer cell lines; conditions: cited from earlier work
[7] = system: tumour growth; conditions: inducing mitochondrial effects of p53; cited from earlier work

In the case of `CC1(C)CCC(CN2CCN(c3ccc(C(=O)NS(=O)(=O)c4ccc(NCC5CCOCC5)c([N+](=O)[O-])c4)c(Oc4cnc5[nH]ccc5c4)c3)CC2)=C(c2ccc(Cl)cc2)C1` [ABT-199, reference compound], the “effect of SKP2 overexpression on cytotoxicity / sensitivity” value [1] is reported as “does not modulate sensitivity; also recorded: no difference”.
In the case of `C[C@@H]1CN(CC(=O)N2CC(C)(C)c3nc(CO)c(Cc4ccc(F)cc4)cc32)[C@@H](CN2CCOC[C@H]2C)CN1` [ASTX660, 1-{6-[(4-fluorophenyl)methyl]-5-(hydroxymethyl)-3,3-dimethyl-1H,2H,3H-pyrrolo[3,2-b]pyridin-1-yl}-2-[(2R,5R)-5-methyl-2-{[(3R)-3-methylmorpholin-4-yl]methyl}piperazin-1-yl]ethan-1-one, reference compound], the “level of apoptosis (cleaved caspase-3), combination” value [2] is reported as “sensitises”.
`CC(C)(O)c1ccc2c(c1)C(=O)N(Cc1ccc(Cl)cc1)[C@@]2(OCC1(CO)CC1)c1ccc(Cl)cc1` [Example 1, (3R)-3-(4-chlorophenyl)-2-[(4-chlorophenyl)methyl]-3-{[1-(hydroxymethyl)cyclopropyl]methoxy}-6-(2-hydroxypropan-2-yl)-2,3-dihydro-1H-isoindol-1-one] gave an IC50 [3] of 7.5 µM.
With `CC(C)(O)c1cc(F)c2c(c1)C(=O)N(Cc1ccc(Cl)cc1)[C@@]2(OCC1(CO)CC1)c1ccc(Cl)cc1` [Example 2, (3R)-3-(4-chlorophenyl)-2-[(4-chlorophenyl)methyl]-4-fluoro-3-{[1-(hydroxymethyl)cyclopropyl]methoxy}-6-(2-hydroxypropan-2-yl)-2,3-dihydro-1H-isoindol-1-one] the IC50 [3] was 17 µM.
For `CC(O)(CN1CCNCC1)c1cc(F)c2c(c1)C(=O)N(Cc1ccc(Cl)cc1S(C)(=O)=O)[C@@]2(OCC1(CO)CC1)c1ccc(Cl)cc1` (stereo partly drawn) [Example 43, (3R)-2-[(4-chloro-2-methanesulfonylphenyl)methyl]-3-(4-chlorophenyl)-4-fluoro-6-[2-hydroxy-1-(piperazin-1-yl)propan-2-yl]-3-{[1-(hydroxymethyl)cyclopropyl]methoxy}-2,3-dihydro-1H-isoindol-1-one], the IC50 [3] was 2 µM.
In the case of `c1ccc2c(CCNc3ccc(Nc4ccncc4)cc3)c[nH]c2c1` [JNJ 26854165], the “activity against multiple myeloma (MM) cells” value [4] is given as “potent activity”.
For `O=C(O)C(F)(F)F.O=C1CCC(N2Cc3c(C#CCCCNC(=O)c4ccc(NC(=O)[C@@H]5NC6(CCCCC6)[C@@]6(C(=O)Nc7cc(Cl)ccc76)[C@H]5c5ccnc(Cl)c5F)cc4)cccc3C2=O)C(=O)N1` (stereo partly drawn) [LE-004], the “growth of human leukaemia models in mice” value [5] is given as “efficiently inhibited growth”.
For `CC(C)(C)C[C@@H]1N[C@@H](C(=O)N[C@H]2CC[C@H](O)CC2)[C@H](c2cccc(Cl)c2F)[C@]12C(=O)Nc1cc(Cl)ccc12` [MI-773], the “cell growth in cancer cell lines” value [6] is given as “potently inhibits cell growth”.
In the case of `COC1CC(C(N)=O)CCC1NC(=O)[C@@H]1N[C@@H](CC(C)(C)C)[C@@]2(C(=O)Nc3cc(Cl)ccc32)[C@H]1c1cccc(Cl)c1F` (stereo partly drawn) [RO-8994], the tumour growth [7] is listed as “inhibit tumour growth”.
